{"source": "patent EP1694242B1", "about": "“PROCESS FOR MAKING PHARMACEUTICAL 7-(2-TRIMETHYLSILYLETHYL) CAMPTOTHECIN FORMULATIONS” (BIONUMERIK PHARMACEUTICALS, INC., priority 2003, dated 2005)", "origin": "cited, not measured here", "details": "fraction of the potency of the lactone form; background statement"}
{"molecule": "CC[C@@](O)(C(=O)O)c1cc2n(c(=O)c1CO)Cc1cc3ccccc3nc1-2", "note": "[carboxylate form of CPT]", "values": [{"measurement": "antitumor potency of the carboxylate form relative to the lactone form of CPT", "result": "one-tenth"}]}
